Source: patent US6716851B2, “Substituted 2-aryl-4-arylaminopyrimidines and analogs as activators or caspases and inducers of apoptosis and the use thereof” (Cytovia, Inc., priority 2000, dated 2004)
Like-named read-outs stand apart in the source and are kept apart here.

What was measured:
[1] = tested on: Panc-1 (pancreatic cancer cell line); assay: Cell proliferation assay (GI50) in Panc-1 cells; assay type: cell-based; details: Homo sapiens, PANC-1, 48 h
Method: [Worded in the source for another cell line; this cell line is reported under the same test.] (§1) T-47D cells were grown and harvested as in Example 221. An aliquot of 90 μl of cells (2.2×10^4 cells/ml) was added to a well of a 96-well microtiter plate containing 10 μl of a 10% DMSO in RPMI-1640 media solution containing 1 nM to 100 μM of 4-(3-methoxyanilino)-2-(2-pyridinyl)-6-(trifluoromethyl)pyrimidine (0.1 nM to 10 μM final). An aliquot of 90 μl of cells was added to a well of a 96-well microtiter plate containing 10 μl of a 10% DMSO in RPMI-1640 media solution without compound as the control sample for maximal cell proliferation (AMax). The samples were mixed by agitation and then incubated at 37° C. for 48 h in a 5% CO2-95% humidity incubator. After incubation, the samples were removed from the incubator and 20 μl of CellTiter 96 AQueous One Solution Cell Proliferation^TM reagent (Promega) was added. The samples were mixed by agitation and incubated at 37° C. for 2-4 h in a 5% CO2-95% humidity incubator. Using an absorbance plate reader (Model 1420 Wallac Instruments), an initial reading (T=0) was made approximately 1-2 min after addition of the solution, employing absorbance at 490 nm. This determines the possible background absorbance of the test compounds. No absorbance for 4-(3-methoxyanilino)-2-(2-pyridinyl)-6-(trifluoromethyl)pyrimidine was found at 490 nm. After the 2-4 h incubation, the samples were read for absorbance as above (ATest). […]

ZR-75-1 cells [2] = assay: Caspase cascade activation (N-(Ac-DEVD)-N'-ethoxycarbonyl-R110 fluorogenic substrate) in ZR-75-1 cells; assay type: cell-based, Human; details: ZR-75-1, 48 h incubation
Summary of the method: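 Cells (0.65×10^6/ml) exposed 48 h at 37 °C to compound (0.016-10 μM final), then lysed with 14 μM DEVD-R110 substrate buffer (PIPES pH 7.2, DTT, lysolecithin) for 3 h at room temperature. Net fluorescence (485/530 nm) relative to control; EC50 by sigmoidal dose-response.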

[3] = tested on: SW620 (colorectal cancer cell line); assay: Cell proliferation assay (GI50) in SW620 cells; assay type: cell-based; details: Homo sapiens, SW-620; SW620, 48 h
Method: [Worded in the source for another cell line; used here, by the source, with some conditions changed.] as §1

T-47D cells = assay: Cell proliferation assay (GI50) in T-47D cells; assay type: cell-based; details: Homo sapiens, T47D, 48 h
Method: as §1

ZR-75-1 cells [4] = assay: Cell proliferation assay (GI50) in ZR-75-1 cells; assay type: cell-based; details: Homo sapiens; ZR 75-1, 48 h
Method: [Worded in the source for another cell line; this cell line is reported under the same test.] as §1

For COc1cccc(Nc2cc(C(F)(F)F)nc(-c3ccccn3)n2)c1 [Compound A, 4-(3-methoxyanilino)-2-(2-pyridinyl)-6-(trifluoromethyl)pyrimidine], which GI50 [1] is on record?
Its GI50 is over 10000 nM.

What about the EC50 (ZR-75-1 cells [2]; Homo sapiens, caspase activation potency) of the same compound?
The EC50 was 140 nM.

What about the “ZR Ratio 48 hr” value (ZR-75-1 cells [2]; caspase activity: ratio of net RFU of test compound to control) of the same compound?
The value was 3.6.

What about the GI50 [3] of the same compound?
Its GI50 is over 10000 nM.

And the GI50 (T-47D cells; T-47D, Table II, read-out: GI50)?
Its GI50 is 30 nM.

And the GI50 (T-47D cells; Table III, read-out: GI50(nM) T47D)?
The GI50 was 30 nM.

And the GI50 (ZR-75-1 cells [4])?
Its GI50 is 100 nM.
